This is an account of results in patent US8562945B2, “Technetium- and rhenium-bis(heteroaryl) complexes and methods of use thereof” (Molecular Insight Pharmaceuticals, Inc., priority 2008, dated 2013).

The nature of series [1]: Determination of Log P values of 99mTc-SAAC complexes. To be noted: 99mTc complex; n-octanol / 25 mM pH=7.4 phosphate buffer. The format is physicochemical. Here is the method:
Determination of Log P Values. The Log P values of the ^99mTc(I)-complexes were determined as follows. The ^99mTc-SAAC complexes were prepared and purified by RP-HPLC. The desired peak was collected and the sample was evaporated under a stream of nitrogen. The residue was dissolved in 25 μL of saline and placed in an equal volume of n-octanol (3 mL) and 25 mM pH=7.4 phosphate buffer (3 mL). The samples were mixed under vortex for 20 min, centrifuged at 8000 rpm for 5 min and three 100 μL aliquots were removed from both the aqueous and the organic layers for analysis on a gamma counter (Wallac 1282). Subsequently, 1 mL of the phosphate bufferTc-complex solution was removed and the process was repeated with fresh n-octanol, for a total number of six extractions to ensure full extraction of all the organic components. The partition coefficients were calculated using the equation: P=(activity concentration in n-octanol)/(activity concentration in aqueous layer). The Log P values reported were calculated from the average of the different measurements.

A short description of series [2]: Rat tissue distribution of 99mTc complexes of example ligands (Table 6). To be noted: 99mTc complex. The format is in vivo, Sprague-Dawley Rats. On the procedure:
Rat Tissue Distribution Studies. The distribution and pharmacokinetics of selected ^99mTc-SAAC complexes were evaluated in normal male Sprague Dawley rats (180-200 grams) administered via the tail vein as a bolus injection (approximately 10 μCi/rat) in a constant volume of 0.1 ml. The animals (n=5 per time point) were euthanized by asphyxiation with carbon dioxide at 5, 30, 60, and 120 min post injection. Tissues (blood, heart, lungs, liver, spleen, kidneys, adrenals, stomach, intestines (with contents), testes, skeletal muscle, bone and brain) were dissected, excised, weighed wet, and counted in an automated γ-counter (LKB Model 1282, Wallac Oy, Finland). Tissue time-radioactivity levels expressed as percent injected dose per gram of tissue (% ID/g) was determined.
^99mTc Complexes of various example ligands in Sprague-Dawley Rats.

Series [3] is described as follows: Complex stability: 99mTc cysteine and histidine challenge experiments. The format is physicochemical. To be noted: for time stable to excess histidine and cysteine challenges: 99mTc-SAAC complex, 37° C. Here is the method:
3. Tc-99m labeling. [^99mTc(CO)3(H2O)3]^+ was heated with [8-{N,N-di(pyridyl-2-methyl)}α-(fmoc)lysine] (DpK) in 0.5 mL (1 mg/mL) of methanol at 100° C. for 30 minutes. […] Labeling yields of >50% RCY, were achievable at levels as low as 2 μg/mL.
Complex stability: ^99mTc challenge experiments. The complexes were analyzed by HPLC for stability against cysteine and histidine challenge over time.

In series [4] the target is CA-IX (Homo sapiens (Human), UniProt Q16790). Put plainly: Inhibition of carbonic anhydrase enzyme activity (4-nitrophenyl acetate hydrolysis), CA-IX. The format is biochemical. The note with it: purified human enzyme, pH 7.4, 25° C. Here is the method: (§1) Selective Inhibition of Carbonic Anhydrase Enzyme Activity. Compounds were tested for their ability to inhibit carbonic anhydrase isozymes II and IX in vitro. Purified human enzymes were from R&D Systems (Minneapolis, Minn.). The inhibition constants (Ki) for CA-II and CA-IX were determined by the method of Pocker and Stone. Initial rates of 4-nitrophenyl acetate hydrolysis catalyzed by the different carbonic anhydrase isozymes were measured spectrophotometrically at 400 nm. Solutions of substrate (1×10^−2 to 1×10^−6 M) were prepared in anhydrous acetonitrile. A molar extinction coefficient of 18,000 M^−1·cm^−1 was used for the 4-nitrophenolate formed by hydrolysis under the conditions of the experiment (9 mM Tris-HCl, 81 mM NaCl, pH 7.4, 25° C.). The enzyme concentrations were 100 nM for CA-IX and 30 nM for CA-II. Non-enzymatic hydrolysis rates, determined in the absence of added enzyme, were subtracted from the observed rates. […] Dilutions of inhibitor were added to enzyme solutions and preincubated for 10 min to allow for the formation of the E-I complex prior to the addition of substrate. Acetazolamide was included in all assays as positive controls.

Series [5] deals with CA-II (Homo sapiens (Human), UniProt P00918). Put plainly: Inhibition of carbonic anhydrase enzyme activity (4-nitrophenyl acetate hydrolysis), CA-II. The format is biochemical. The note with it: purified human enzyme, pH 7.4, 25° C. Here is the method: as §1
A short description of series [6]: Normal rat tissue distribution studies of 99mTc-SAAC complexes (Table 5). The format is in vivo, male Sprague Dawley rats. The note with it: tail vein, average ± SEM. Here is the method: Normal Rat Tissue Distribution Studies. Normal rat tissue distribution studies were performed with [^99mTc(CO)3{η^3-(DpK)}], [Tc(CO)3{η^3-(DTK)}] and [Tc(CO)3{η^3-(PAMAK)}] in groups of male Sprague Dawley rats (n=4/group, 180-200 grams each) at 5, 30, 60, and 120 minutes post injection. The compounds were injected via the tail vein in saline (10 μCi/100 μl). […] All three SAAC ligands had very high accumulation and retention in the gastrointestinal (GI) tract. […] The design of hydrophilic SAAC ligands may alter the pharmacokinetics by mitigating the lipophilicity of the complex and potentially favoring renal, over liver and GI clearance. Such a result may facilitate the development of clinically relevant molecular imaging radiopharmaceuticals with desirable pharmacokinetic properties.

In general, Log P refers to the decadic logarithm of the partition coefficient of the neutral form, usually between octanol and water. For `NC(CCCCN1CC(=O)[O][Tc-][O]C(=O)C1)C(=O)O.[C-]#[O+].[C-]#[O+].[C-]#[O+]` (centres unmarked) [Compound 7-Tc], in series [1], the log partition coefficient (Log P) was −2.20.

For the molecule `N[C@@H](CCCCN(Cc1ccccn1)Cc1ccccn1)C(=O)O` [DpK, [ε-{N,N-di(pyridyl-2-methyl)}α-lysine], reference compound], the log partition coefficient (Log P) in series [1] is recorded as −1.89. In series [2] (5 min), this molecule gave a Blood tissue distribution of 0.58 ± 0.05 % ID/g, a GI tissue distribution of 0.49 ± 0.08 % ID/g, a Kidney tissue distribution of 6.05 ± 1.03 % ID/g and a Liver tissue distribution of 3.36 ± 0.44 % ID/g. Besides, the “Sk. Muscle tissue distribution” value in series [2] (5 min) came to 0.18 ± 0.02 % ID/g. Besides, in series [2] (30 min), the Blood tissue distribution worked out at 0.07 ± 0.01 % ID/g, the GI tissue distribution came to 0.89 ± 0.07 % ID/g, the Kidney tissue distribution was determined as 4.94 ± 0.11 % ID/g and the Liver tissue distribution is 2.75 ± .011 % ID/g. Besides, the “Sk. Muscle tissue distribution” value in series [2] (30 min) worked out at 0.03 ± 0.00 % ID/g. In series [2] (60 min), this molecule had a Blood tissue distribution of 0.03 ± 0.01 % ID/g, a GI tissue distribution of 1.46 ± 0.09 % ID/g, a Kidney tissue distribution of 4.93 ± 0.43 % ID/g and a Liver tissue distribution of 2.59 ± 0.08 % ID/g. In series [2] (60 min), the “Sk. Muscle tissue distribution” value turned out to be 0.03 ± 0.01 % ID/g. Also, in series [2] (120 min), the Blood tissue distribution was found to be 0.01 ± 0.00 % ID/g, the GI tissue distribution is recorded as 2.73 ± 0.57 % ID/g, the Kidney tissue distribution was 3.89 ± .042 % ID/g and the Liver tissue distribution came to 2.20 ± 0.06 % ID/g. Besides, the “Sk. Muscle tissue distribution” value in series [2] (120 min) is reported as 0.01 ± 0.00 % ID/g. For the same molecule, the “degradation by HPLC after cysteine or histidine challenge” value in series [3] (100 mM cysteine or histidine in PBS pH 7.2, 37° C., 18 h) was “no degradation”. Also, the “time stable to excess histidine and cysteine challenges” value in series [3] was “more than 18 hours”.

Consider `N[C@@H](CCCCN(Cc1nccs1)Cc1nccs1)C(=O)O` [DtK, (dithiazole)lysine], for which the lipophilicity (Log P) in series [1] is −2.40. In series [2] (5 min), the Blood tissue distribution was found to be 3.32 ± 0.82 % ID/g, the GI tissue distribution was 0.3 ± 0.15 % ID/g, the Kidney tissue distribution came to 3.26 ± 1.04 % ID/g and the Liver tissue distribution stood at 1.7 ± 0.42 % ID/g. Also, in series [2] (5 min), the “Sk. Muscle tissue distribution” value stood at 0.16 ± 0.05 % ID/g. In series [2] (30 min), this molecule registered a Blood tissue distribution of 2.33 ± 0.26 % ID/g, a GI tissue distribution of 0.59 ± 0.13 % ID/g, a Kidney tissue distribution of 4.71 ± 0.41 % ID/g and a Liver tissue distribution of 1.93 ± 0.15 % ID/g. Moreover, in series [2] (30 min), the “Sk. Muscle tissue distribution” value amounted to 0.16 ± 0.01 % ID/g. Besides, in series [2] (60 min), the Blood tissue distribution came out at 1.4 ± 0.07 % ID/g, the GI tissue distribution worked out at 0.73 ± 0.29 % ID/g, the Kidney tissue distribution worked out at 4.78 ± 0.14 % ID/g and the Liver tissue distribution is 2.05 ± .041 % ID/g. Also, in series [2] (60 min), the “Sk. Muscle tissue distribution” value was determined as 0.15 ± 0.02 % ID/g. In addition, in series [2] (120 min), the Blood tissue distribution is reported as 0.76 ± 0.12 % ID/g, the GI tissue distribution stood at 0.87 ± 0.2 % ID/g, the Kidney tissue distribution worked out at 4.83 ± 0.41 % ID/g and the Liver tissue distribution is 2.61 ± 0.31 % ID/g. The “Sk. Muscle tissue distribution” value in series [2] (120 min) is listed as 0.12 ± 0.01 % ID/g. Besides, the “time stable to excess histidine and cysteine challenges” value in series [3] is on record as “more than 18 hours”.

For the molecule “(pyridylamine)monoacetic acid lysine [PAMA-K]”, the “Log P” value in series [1] was −1.80.

For orientation: IC50 means the point on the concentration scale where inhibition reaches its midpoint. Regarding “[Re(CO)3][2-((pyridin-2-ylmethyl)(4-sulfamoylphenethyl)amino)acetic acid] [Compound 23-Re]”, the concentration for half-maximal inhibition (IC50) was determined as 564 nM in series [4] and 652 nM in series [5].

Take [^99mTc(CO)3(DPK)]: the Blood tissue distribution in series [6] (5 Min post injection) is given as 7.01 ± 1.38 % ID/g; in series [6] (30 Min. post injection) it was 1.12 ± 0.31 % ID/g; in series [6] (60 Min. post injection), 0.39 ± 0.16 % ID/g; in series [6] (120 Min post injection) it was 0.18 ± 0.01 % ID/g. Moreover, the GI tissue distribution stood at 4.65 ± 1.78 % ID/g in series [6] (5 Min post injection), 15.01 ± 1.82 % ID/g in series [6] (30 Min. post injection), 24.46 ± 6.20 % ID/g in series [6] (60 Min. post injection) and 38.90 ± 5.94 % ID/g in series [6] (120 Min post injection). The Kidney tissue distribution in series [6] (5 Min post injection) is on record as 8.88 ± 3.20 % ID/g; in series [6] (30 Min. post injection), 9.72 ± 0.68 % ID/g; in series [6] (60 Min. post injection), 9.47 ± 1.23 % ID/g; in series [6] (120 Min post injection) it was 7.08 ± 1.58 % ID/g. Moreover, the Liver tissue distribution in series [6] (5 Min post injection) was 16.28 ± 5.12 % ID/g; in series [6] (30 Min. post injection) it was 26.03 ± 1.50 % ID/g; in series [6] (60 Min. post injection), 22.71 ± 1.14 % ID/g; in series [6] (120 Min post injection), 14.44 ± 2.75 % ID/g.
